Test results from ChEMBL document CHEMBL4483862, “Open-source discovery of chemical leads for next-generation chemoprotective antimalarials” (2018).

Tested on: Plasmodium berghei
Experiment: Luciferase/luciferin-expressing antifolate-resistant parasites were used to infect a culture of HepG2 cells that were pre-incubated with compounds. Infected hepatocytes emit light due to the luciferase reaction. Assay results are presented as the percent inhibition of light emission compared to control. […]
Type: functional
Conditions: sporozoite; for IC90: read-out: LUCIFERASE INFECTION ASSAY - IC90

Cc1onc(-c2ccc(Cl)cc2Cl)c1-c1csc(Nc2ccc(Cl)cc2)n1
IC50 (FFLUC_HILL_SLOPE 2.37, FFLUC_R_SQUARED 0.46, PBLUC_HILL_SLOPE 2.86, PBLUC_R_SQUARED 0.233, read-out: LUCIFERASE INFECTION ASSAY - IC50): 6.39 µM
IC90: > 7.56 µM

O=C1CCCC2=Nc3ccc4ccccc4c3C(c3ccc(F)cc3F)C12 (stereo not drawn)
IC50 (FFLUC_HILL_SLOPE 2.36, FFLUC_R_SQUARED 0.309, read-out: LUCIFERASE INFECTION ASSAY - IC50): > 10 µM
IC90: > 10 µM

O=C(Nc1ccc(Cl)cc1)Nc1nc(-c2cc(Cl)sc2Cl)cs1
IC50 (FFLUC_HILL_SLOPE 2.44, FFLUC_R_SQUARED 0.604, PBLUC_HILL_SLOPE 2.52, PBLUC_R_SQUARED 0.549, read-out: LUCIFERASE INFECTION ASSAY - IC50): 3.26 µM
IC90: 7.79 µM

O=C1C(=O)N(Cc2ccc(Cl)cc2)c2c1cccc2C(F)(F)F
IC50 (FFLUC_HILL_SLOPE 2.39, FFLUC_R_SQUARED 0.89, HEPG2TOX_HILL_SLOPE 3.88, HEPG2TOX_R_SQUARED 0.975, PBLUC_HILL_SLOPE 2.88, PBLUC_R_SQUARED 0.708, read-out: LUCIFERASE INFECTION ASSAY - IC50): 1.58 µM
IC90: 3.39 µM

Cc1ccc(C2(c3ccccc3)NC(=O)N(CC(=O)c3ccc(Br)s3)C2=O)cc1C (stereo not drawn)
IC50 (FFLUC_HILL_SLOPE 2.42, FFLUC_R_SQUARED 0.19, PBLUC_HILL_SLOPE 12.8, PBLUC_R_SQUARED 0.482, read-out: LUCIFERASE INFECTION ASSAY - IC50): 3.29 µM
IC90: 3.91 µM

COC(=O)c1ccc(/C=C2\Oc3cc(O)cc(C)c3C2=O)cc1
IC50 (FFLUC_HILL_SLOPE 2.39, FFLUC_R_SQUARED 0.815, read-out: LUCIFERASE INFECTION ASSAY - IC50): > 10.6 µM
IC90: > 10.6 µM

O=C(Nc1nc2c(s1)CCC2)c1cnn(-c2ccccc2)c1C1CC1
IC50 (FFLUC_HILL_SLOPE 2.39, FFLUC_R_SQUARED 0.896, PBLUC_HILL_SLOPE 0.607, PBLUC_R_SQUARED 0.989, read-out: LUCIFERASE INFECTION ASSAY - IC50): 0.0108 µM
IC90: 0.405 µM

Cc1ccc(-c2nn(-c3ccccc3)cc2/C=C(/C(=O)c2ccccc2)c2nc3ccccc3s2)o1
IC50 (FFLUC_HILL_SLOPE 2.3, FFLUC_R_SQUARED 0.652, PBLUC_HILL_SLOPE 2.05, PBLUC_R_SQUARED 0.091, read-out: LUCIFERASE INFECTION ASSAY - IC50): > 10 µM
IC90: > 10 µM

C=CCn1c(SC(C(=O)c2c[nH]c3ccccc23)c2ccccc2)nc2sc(C)c(C)c2c1=O (stereo not drawn)
IC50 (FFLUC_HILL_SLOPE 2.34, FFLUC_R_SQUARED 0.404, HEPG2TOX_HILL_SLOPE 0.632, HEPG2TOX_R_SQUARED 0.765, PBLUC_HILL_SLOPE 19.2, PBLUC_R_SQUARED 0.592, read-out: LUCIFERASE INFECTION ASSAY - IC50): 3.33 µM
IC90: 3.74 µM

COc1ccccc1NC1=C(Cl)C(=O)c2ccccc2C1=O
IC50 (FFLUC_HILL_SLOPE 2.43, FFLUC_R_SQUARED 0.19, HEPG2TOX_HILL_SLOPE 11.1, HEPG2TOX_R_SQUARED 0.994, PBLUC_HILL_SLOPE 1.56, PBLUC_R_SQUARED 0.76, read-out: LUCIFERASE INFECTION ASSAY - IC50): 2 µM
IC90: 8.17 µM

Cc1cc(C(=O)ONC(=N)c2ccccc2)nn1C(C)(C)C
IC50 (FFLUC_HILL_SLOPE 2.36, FFLUC_R_SQUARED 0.364, PBLUC_HILL_SLOPE 1.16, PBLUC_R_SQUARED 0.78, read-out: LUCIFERASE INFECTION ASSAY - IC50): 0.186 µM
IC90: 1.23 µM

S=C(NCC1CCCO1)c1c(-c2ccccc2)c2c3n(c(COc4ccccc4)nn13)CCCC2 (stereo not drawn)
IC50 (FFLUC_HILL_SLOPE 2.32, FFLUC_R_SQUARED 0.306, HEPG2TOX_HILL_SLOPE 7.94, HEPG2TOX_R_SQUARED 0.0665, PBLUC_HILL_SLOPE 11.7, PBLUC_R_SQUARED 0.258, read-out: LUCIFERASE INFECTION ASSAY - IC50): 7.8 µM
IC90: 9.41 µM

NC(=O)c1ccsc1NC(=O)Cc1coc2ccc3ccccc3c12
IC50 (FFLUC_HILL_SLOPE 2.43, FFLUC_R_SQUARED 0.812, HEPG2TOX_HILL_SLOPE 2.74, HEPG2TOX_R_SQUARED 0.883, PBLUC_HILL_SLOPE 2.33, PBLUC_R_SQUARED 0.39, read-out: LUCIFERASE INFECTION ASSAY - IC50): 5.74 µM
IC90: > 10 µM

CC(C)n1ncc2c(C(=O)Nc3nnc(C(F)(F)F)s3)cc(-c3ccc4c(c3)OCCO4)nc21
IC50 (FFLUC_HILL_SLOPE 2.46, FFLUC_R_SQUARED 0.0818, HEPG2TOX_HILL_SLOPE 10.3, HEPG2TOX_R_SQUARED 0.775, PBLUC_HILL_SLOPE 73.3, PBLUC_R_SQUARED 0.159, read-out: LUCIFERASE INFECTION ASSAY - IC50): 5.42 µM
IC90: 5.59 µM

c1ccc2cc(C3=NNC(=NC4CC4)SC3)ccc2c1
IC50 (FFLUC_HILL_SLOPE 2.37, FFLUC_R_SQUARED 0.781, HEPG2TOX_HILL_SLOPE 1.63, HEPG2TOX_R_SQUARED 0.913, PBLUC_HILL_SLOPE 5.38, PBLUC_R_SQUARED 0.229, read-out: LUCIFERASE INFECTION ASSAY - IC50): 0.0129 µM
IC90: 0.0194 µM

O=C(CSc1nnc(-c2ccc(Cl)cc2Cl)n1-c1ccc(F)c(Cl)c1)NCCC1=CCCCC1
IC50 (FFLUC_HILL_SLOPE 2.41, FFLUC_R_SQUARED 0.138, HEPG2TOX_HILL_SLOPE 7.97, HEPG2TOX_R_SQUARED 0.0659, PBLUC_HILL_SLOPE 2.87, PBLUC_R_SQUARED 0.0345, read-out: LUCIFERASE INFECTION ASSAY - IC50): 8.61 µM
IC90: > 10 µM

CC(=O)C1=NN(c2ccccc2)C(c2ccccc2OCc2ccccc2)N1c1ccc(N2CCOCC2)cc1 (stereo not drawn)
IC50 (FFLUC_HILL_SLOPE 2.34, FFLUC_R_SQUARED 0.456, PBLUC_HILL_SLOPE 2.53, PBLUC_R_SQUARED 0.447, read-out: LUCIFERASE INFECTION ASSAY - IC50): 9.41 µM
IC90: > 10 µM

O=C(COC(=O)c1ccc2ccccc2c1)c1cc2c3c(c1)CC(=O)N3CCC2
IC50 (FFLUC_HILL_SLOPE 2.44, FFLUC_R_SQUARED 0.438, read-out: LUCIFERASE INFECTION ASSAY - IC50): > 10 µM
IC90: > 10 µM

Fc1ccc(CSc2nc(CSc3ccc(Cl)cc3)cc(Sc3ccc(Cl)cc3)n2)cc1
IC50 (FFLUC_HILL_SLOPE 2.29, FFLUC_R_SQUARED 0.432, read-out: LUCIFERASE INFECTION ASSAY - IC50): > 6.35 µM
IC90: > 6.35 µM

CCCN(CCC)c1ccc(C(C2C(=O)CC(C)(C)CC2=O)C2C(=O)CC(C)(C)CC2=O)cc1
IC50 (FFLUC_HILL_SLOPE 2.34, FFLUC_R_SQUARED 0.0441, PBLUC_HILL_SLOPE 3.18, PBLUC_R_SQUARED 0.551, read-out: LUCIFERASE INFECTION ASSAY - IC50): 5.61 µM
IC90: > 10 µM

CC(C)(CSc1ccc(F)cc1)NS(=O)(=O)c1ccc(Cl)cc1
IC50 (FFLUC_HILL_SLOPE 2.37, FFLUC_R_SQUARED 0.607, HEPG2TOX_HILL_SLOPE 7.41, HEPG2TOX_R_SQUARED 0.381, PBLUC_HILL_SLOPE 2.26, 0.933, PBLUC_R_SQUARED 0.368, 0.781, read-out: LUCIFERASE INFECTION ASSAY - IC50): 4.38 µM
IC90: > 10 µM

Cc1ccc(N2C(=O)/C(=C/c3ccc(C(C)C)cc3)N=C2SCc2cccc(S(=O)(=O)N(C)C)c2)cc1
IC50 (FFLUC_HILL_SLOPE 2.29, FFLUC_R_SQUARED 0.777, PBLUC_HILL_SLOPE 2.35, PBLUC_R_SQUARED 0.372, read-out: LUCIFERASE INFECTION ASSAY - IC50): 6.97 µM
IC90: > 10 µM

O=S(=O)(c1ccc(CNc2ncnc3scc(-c4ccc(F)cc4)c23)s1)N1CCCC1
IC50 (FFLUC_HILL_SLOPE 2.33, FFLUC_R_SQUARED 0.668, PBLUC_HILL_SLOPE 11.9, PBLUC_R_SQUARED 0.757, read-out: LUCIFERASE INFECTION ASSAY - IC50): 8.74 µM
IC90: > 10 µM

O=C(N/N=C/c1c(-c2ccccc2)n(-c2ccccc2)c2ccccc12)C1COc2ccccc2O1 (stereo not drawn)
IC50 (FFLUC_HILL_SLOPE 2.45, FFLUC_R_SQUARED 0.636, PBLUC_HILL_SLOPE 2.61, PBLUC_R_SQUARED 0.591, read-out: LUCIFERASE INFECTION ASSAY - IC50): 5.83 µM
IC90: > 10 µM

N#Cc1c(SCc2ccc(Cl)cc2)nc2c(c1-c1cccs1)CCCC2
IC50 (FFLUC_HILL_SLOPE 2.42, FFLUC_R_SQUARED 0.441, PBLUC_HILL_SLOPE 1.78, PBLUC_R_SQUARED 0.144, read-out: LUCIFERASE INFECTION ASSAY - IC50): 7.61 µM
IC90: > 8.31 µM

Cc1ccc(-n2c(SCc3c(-c4ccccc4)nc4sccn34)nnc2-c2ccccc2)cc1C
IC50 (FFLUC_HILL_SLOPE 2.28, FFLUC_R_SQUARED 0.669, PBLUC_HILL_SLOPE 14.9, PBLUC_R_SQUARED 0.408, read-out: LUCIFERASE INFECTION ASSAY - IC50): 3.31 µM
IC90: 3.83 µM

COc1ccc(CCn2cnc3c(cnn3-c3ccc(C)cc3)c2=O)cc1
IC50 (FFLUC_HILL_SLOPE 2.44, FFLUC_R_SQUARED 0.232, HEPG2TOX_HILL_SLOPE 1.29, HEPG2TOX_R_SQUARED 0.958, PBLUC_HILL_SLOPE 8.61, PBLUC_R_SQUARED 0.878, read-out: LUCIFERASE INFECTION ASSAY - IC50): 0.103 µM
IC90: 0.133 µM

COc1ccc(C(c2cc(Cl)c3cccnc3c2O)N2CCN(C)CC2)cc1 (stereo not drawn)
IC50 (FFLUC_HILL_SLOPE 2.4, FFLUC_R_SQUARED 0.862, HEPG2TOX_HILL_SLOPE 1.1, HEPG2TOX_R_SQUARED 0.743, PBLUC_HILL_SLOPE 15.9, PBLUC_R_SQUARED 0.801, read-out: LUCIFERASE INFECTION ASSAY - IC50): 2.95 µM
IC90: 3.38 µM

CCOC(=O)c1c(S(=O)(=O)Nc2ccc(C(C)(C)C)cc2)c(-c2ccccc2)n(-c2ccccc2)c1C
IC50 (FFLUC_HILL_SLOPE 2.33, FFLUC_R_SQUARED 0.844, HEPG2TOX_HILL_SLOPE 0.337, HEPG2TOX_R_SQUARED 0.667, PBLUC_HILL_SLOPE 4.65, PBLUC_R_SQUARED 0.51, read-out: LUCIFERASE INFECTION ASSAY - IC50): 3.23 µM
IC90: 5.19 µM
